Type in all cases: cell-based
Assay [1] has as its system FRDA fibroblasts (Coriell GM04078). Put plainly: Rescue of BSO-stressed human dermal fibroblasts from Friedreich's ataxia patients (Calcein AM viability). The note with it: FRDA fibroblasts stressed with 1 mM BSO, 48 h, Calcein AM fluorescence, read-out: protection against FRDA, EC50. Here is the method: Test samples and solvent controls were tested for their ability to rescue FRDA fibroblasts stressed by addition of L-buthionine-(S,R)-sulfoximine (BSO), as described in Jauslin et al., Hum. Mol. Genet. 11(24):3055 (2002), Jauslin et al., FASEB J. 17:1972-4 (2003), and International Patent Application WO 2004/003565. […] This specific BSO-mediated cell death can be prevented by administration of antioxidants or molecules involved in the antioxidant pathway, such as alpha-tocopherol, selenium, or small molecule glutathione peroxidase mimetics. However, antioxidants differ in their potency, i.e. the concentration at which they are able to rescue BSO-stressed FRDA fibroblasts. MEM (a medium enriched in amino acids and vitamins, catalog no. 1-31F24-I) and Medium 199 (M199, catalog no. 1-21F22-I) with Earle's Balanced Salts, without phenol red, were purchased from Bioconcept. Fetal Calf Serum was obtained from PAA Laboratories. Basic fibroblast growth factor and epidermal growth factor were purchased from PeproTech. Penicillin-streptomycin-glutamine mix, L-buthionine (S,R)-sulfoximine, and insulin from bovine pancreas were purchased from Sigma. Calcein AM was purchased from Molecular Probes. Cell culture medium was made by combining 125 ml M199 EBS, 50 ml Fetal Calf Serum, 100 U/ml penicillin, 100 μg/ml streptomycin, 2 mM glutamine, 10 μg/ml insulin, 10 ng/ml EGF, and 10 ng/ml bFGF; MEM EBS was added to make the volume up to 500 ml. A 10 mM BSO solution was prepared by dissolving 444 mg BSO in 200 ml of medium with subsequent filter-sterilization. During the course of the experiments, this solution was stored at +4° C. The cells were obtained from the Coriell Cell Repositories (Camden, N.J.; repository number GM04078) and grown in 10 cm tissue culture plates. Every third day, they were split at a 1:3 ratio. The test samples were supplied in 1.5 ml glass vials. The compounds were diluted with DMSO, ethanol or PBS to result in a 5 mM stock solution. Once dissolved, they were stored at −20° C. Test samples were screened according to the following protocol: A culture with FRDA fibroblasts was started from a 1 ml vial with approximately 500,000 cells stored in liquid nitrogen. Cells were propagated in 10 cm cell culture dishes by splitting every third day in a ratio of 1:3 until nine plates were available. Once confluent, fibroblasts were harvested. For 54 micro titer plates (96 well-MTP) a total of 14.3 million cells (passage eight) were re-suspended in 480 ml medium, corresponding to 100 μL medium with 3,000 cells/well. The remaining cells were distributed in 10 cm cell culture plates (500,000 cells/plate) for propagation. The plates were incubated overnight at 37° C. in a atmosphere with 95% humidity and 5% CO2 to allow attachment of the cells to the culture plate. MTP medium (243 μL) was added to a well of the microtiter plate. The test compounds were unfrozen and 7.5 μL of a 5 mM stock solution was dissolved in the well containing 243 μL medium, resulting in a 150 μM master solution. Serial dilutions from the master solution were made. The period between the single dilution steps was kept as short as possible (generally less than 1 second). Plates were kept overnight in the cell culture incubator. The next day, 10 μL of a 10 mM BSO solution were added to the wells, resulting in a 1 mM final BSO concentration. Forty-eight hours later, three plates were examined under a phase-contrast microscope to verify that the cells in the 0% control (wells E1-H1) were clearly dead. The medium from all plates was discarded, and the remaining liquid was removed by gently tapping the plate inversed onto a paper towel. 100 μl of PBS containing 1.2 μM Calcein AM were then added to each well. The plates were incubated for 50-70 minutes at room temperature. After that time the PBS was discarded, the plate gently tapped on a paper towel and fluorescence (excitation/emission wavelengths of 485 nm and 525 nm, respectively) was read on a Gemini fluorescence reader. […]

Assay [2] has as its system Huntington's cells (Coriell GM 04281). The experiment in a line: Rescue of fibroblasts from Huntington's patients from oxidative stress (screen as in Example A). To be noted: Fibroblast, human dermal fibroblasts from Huntington's patients, read-out: protection against Huntington's, EC50. Here is the method: Compounds of the invention were tested using the screen as described in Example A, but substituting FRDA cells with Huntington's cells obtained from the Coriell Cell Repositories (Camden, N.J.; repository number GM 04281). The compounds were tested for their ability to rescue human dermal fibroblasts from Huntington's patients from oxidative stress.

The test system of assay [3] is Leber's Hereditary Optic Neuropathy (LHON) cells (Coriell GM03858). The experiment in a line: Rescue of fibroblasts from Leber's Hereditary Optic Neuropathy patients from oxidative stress (screen as in Example A). To be noted: Fibroblast, human dermal fibroblasts from LHON patients, read-out: protection against LHON, EC50. Here is the method:
Compounds of the invention were screened as described in Example A, but substituting FRDA cells with Leber's Hereditary Optic Neuropathy (LHON) cells obtained from the Coriell Cell Repositories (Camden, N.J.; repository number GM03858). The compounds were tested for their ability to rescue human dermal fibroblasts from LHON patients from oxidative stress.

Assay [4] concerns cells obtained from CoQ10 deficient patients harboring a CoQ2 mutation. Put plainly: Rescue of fibroblasts from CoQ10 deficient patients from oxidative stress (screen similar to Example A). To be noted: Fibroblast, human dermal fibroblasts from CoQ10 deficient patients (CoQ2 mutation), read-out: protection against CoQ10 deficiency, EC50. Here is the method: Compounds of the invention were tested using a screen similar to the one described in Example A, but substituting FRDA cells with cells obtained from CoQ10 deficient patients harboring a CoQ2 mutation. The compounds were tested for their ability to rescue human dermal fibroblasts from CoQ10 deficient patients from oxidative stress.

Assay [5] concerns Parkinson's disease (PD) cells (Coriell AG20439). Put plainly: Rescue of fibroblasts from Parkinson's disease patients from oxidative stress (screen as in Example A). The note with it: Fibroblast, human dermal fibroblasts from Parkinson's disease patients, read-out: protection against PD, EC50. The method, then: Compounds of the invention were screened as described in Example A, but substituting FRDA cells with Parkinson's disease (PD) cells obtained from the Coriell Cell Repositories (Camden, N.J.; repository number AG20439). The compounds were tested for their ability to rescue human dermal fibroblasts from Parkinson's disease patients from oxidative stress.

The text below walks through data of patent US20130345312A1, “TREATMENT OF MITOCHONDRIAL DISEASES WITH NAPHTHOQUINONES” (priority 2010, published 2013).

Where only a bound is given, the exact number is not on record here.

The term EC50 denotes the concentration at which the effect is half-maximal. Take `COC1=C(OC)C(=O)c2ccccc2C1=O` [2,3-dimethoxynaphthalene-1,4-dione]: the EC50 in assay [1] was < 100 nM; in assay [2], < 150 nM; in assay [3], < 150 nM; in assay [4] it was < 100 nM.
As to `CC1=C(C)C(=O)c2ccccc2C1=O` [2,3-dimethylnaphthalene-1,4-dione], the EC50 in assay [1] was < 100 nM; in assay [2], < 150 nM; in assay [3], < 150 nM; in assay [5] it was < 200 nM; in assay [4], < 100 nM.
With `CCCCC1=C(C)C(=O)c2ccccc2C1=O` [2-butyl-3-methylnaphthalene-1,4-dione], the EC50 was < 100 nM in assay [1]; < 150 nM in assay [2]; < 150 nM in assay [3]; < 200 nM in assay [5]; < 100 nM in assay [4].
With `CCCCCCC1=C(C)C(=O)c2ccccc2C1=O` [2-hexyl-3-methylnaphthalene-1,4-dione], the EC50 in assay [1] was < 100 nM; in assay [2] it was < 150 nM; in assay [3], < 150 nM; in assay [5], < 200 nM; in assay [4], < 100 nM.
Turning to `COC1=CC(=O)c2ccccc2C1=O` [2-methoxynaphthalene-1,4-dione], the EC50 is < 100 nM in assay [1], < 150 nM in assay [2], < 150 nM in assay [3] and < 100 nM in assay [4].
In the case of `O=C1C=CC(=O)c2ccccc21` [naphthalene-1,4-dione], the EC50 in assay [1] is < 100 nM; in assay [2], < 150 nM; in assay [3], < 150 nM; in assay [5], < 200 nM.
